Measured values published in patent US6509163B1, “Methods of screening modulators of mammalian P2X7 purinergic receptors” (Glaxo Group Limited, priority 1997, dated 2003).

Tests used:
[1] = target: T1, P2X7ΔC receptor (Rattus norvegicus, UniProt Q64663); experiment: YO-PRO-1 uptake in HEK cells expressing P2X7ΔC receptor; type: cell-based; details: low divalent solution, BzATP 300 μM
T1 construct: the resulting protein (P2X7ΔC) was P2X7 (1-418); expressed in transfected cells; host or cells: HEK293 (transient)
T1 sequence (Q64663 1-418): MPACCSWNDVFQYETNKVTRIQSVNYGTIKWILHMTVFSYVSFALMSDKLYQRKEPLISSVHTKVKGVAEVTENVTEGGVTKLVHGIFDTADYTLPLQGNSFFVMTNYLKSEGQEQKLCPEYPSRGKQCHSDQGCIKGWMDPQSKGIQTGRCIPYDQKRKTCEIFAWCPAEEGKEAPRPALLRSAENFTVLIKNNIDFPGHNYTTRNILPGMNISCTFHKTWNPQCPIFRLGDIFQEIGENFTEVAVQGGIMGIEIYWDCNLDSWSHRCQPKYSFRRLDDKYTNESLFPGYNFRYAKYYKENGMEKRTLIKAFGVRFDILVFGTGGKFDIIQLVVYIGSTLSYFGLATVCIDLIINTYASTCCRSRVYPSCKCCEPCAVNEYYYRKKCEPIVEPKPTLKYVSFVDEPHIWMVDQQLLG
Experimental: YO-PRO-1 (10 μM; Molecular Probes, Eugene, Oreg.) was added to the superfusion fluid during electrophysiological recordings 3 to 6 min before switching to low divalent solution and washed out upon switching back to normal divalent solution, after which the fluorescent lamp was turned on and cells were examined with a fluorescein isothiocyanate filter. For cell counts, 500 cells per cover slip were counted in each case.

[2] = target: T2, r-hP2X7 (rat 1-346, human 347-595) (Rattus norvegicus, UniProt Q64663, A359S/A378V/A493C/A522V/A540S/C350F/D413N/D475V/E375Q/E438D/E521H/E537D/E539D/G538V/H448D/I354L/I464K/I516L/I541T/K419R/K544R/K576R/L353F/L437T/L525F/M459I/N356D/N481S/N490S/P390S/P407S/Q433A/Q463R/Q505A/Q585E/R366H/R491H/R501K/S370W/S443P/S445A/S449T/S514R/S552C/T348A/T361N/T434M/T584S/V367I/V467T/V559G/W410R/Y593S); experiment: Whole-cell recordings in HEK293 cells expressing chimeric r-hP2X7 receptors; type: cell-based; details: low divalent concentrations, after removal of BzATP, n=10
T2 construct: r-hP2X7 (rat 1-346, human 347-595); expressed in transfected cells; host or cells: HEK293 (transient)
T2 sequence (Q64663 1-595 T348A/C350F/L353F/I354L/N356D/A359S/T361N/R366H/V367I/S370W/E375Q/A378V/P390S/P407S/W410R/D413N/K419R/Q433A/T434M/L437T/E438D/S443P/S445A/H448D/S449T/M459I/Q463R/I464K/V467T/D475V/N481S/N490S/R491H/A493C/R501K/Q505A/S514R/I516L/E521H/A522V/L525F/E537D/G538V/E539D/A540S/I541T/K544R/S552C/V559G/K576R/T584S/Q585E/Y593S): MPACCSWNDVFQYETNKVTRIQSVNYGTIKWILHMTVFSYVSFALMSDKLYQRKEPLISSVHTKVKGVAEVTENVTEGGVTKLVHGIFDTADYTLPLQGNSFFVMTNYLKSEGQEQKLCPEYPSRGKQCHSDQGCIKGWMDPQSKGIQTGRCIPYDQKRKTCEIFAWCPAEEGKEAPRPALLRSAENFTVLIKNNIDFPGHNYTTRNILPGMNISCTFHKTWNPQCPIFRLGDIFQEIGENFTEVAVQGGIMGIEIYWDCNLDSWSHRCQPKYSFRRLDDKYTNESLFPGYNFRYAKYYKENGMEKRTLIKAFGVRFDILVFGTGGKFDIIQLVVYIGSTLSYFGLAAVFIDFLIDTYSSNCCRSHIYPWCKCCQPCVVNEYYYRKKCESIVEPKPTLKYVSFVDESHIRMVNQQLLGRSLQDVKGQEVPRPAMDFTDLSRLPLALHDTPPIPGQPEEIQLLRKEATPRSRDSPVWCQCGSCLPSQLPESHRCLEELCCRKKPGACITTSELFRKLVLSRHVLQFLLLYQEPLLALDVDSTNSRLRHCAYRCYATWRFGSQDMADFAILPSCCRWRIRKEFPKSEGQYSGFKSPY
From the text: Chimeras. A silent restriction site (NheI) was introduced at the equivalent positions in the rat and human cDNAs using the Pfu mutagenesis kit (Stratagene) (T to G at 1069 in rP2X7; G to A at 1072 in hP2X7) . A NheI-XhoI fragment corresponding to 3′ extremity of each cDNA was then excised and subcloned in the opposite plasmid (i.e. human 3′ end into rat background). The resulting chimeras were h-rP2X7 (human 1-346, rat 347-595) and r-hP2X7 (rat 1-346, human 347-595) (FIG. 5). All constructions were sequenced on their entire coding region.
Cell culture. HEK293 cells were transiently transfected with cDNA (1 μg/ml) and lipofectin dissolved in Optimem (GIBCO) placed into petri dishes containing four coverslips onto which cells were plated at a density of about 8×10^4/coverslip. Cells were washed 5 h later and normal DMEM applied. Electrophysiological studies or dye uptake measurements were carried out 18-49 h later. For each set of transfections, parallel experiments were performed on HEK cells transfected with cDNA encoding both rP2X7 and hP2X7 receptors.
Electrophysiological experiments. Whole-cell recordings were made using the EPC9 patch-clamp amplifier and Pulse acquisition programs (HEKA, Lambrecht, Germany). Patch pipettes (5-7 MΩ) contained (mM) CsCl or NaCl 154, EGTA 10, HEPES 5. […]

`Nc1ncnc2c1ncn2[C@@H]1O[C@H](COP(=O)(O)OP(=O)(O)OP(=O)(O)O)[C@@H](OC(=O)c2ccc(C(=O)c3ccccc3)cc2)[C@H]1O` [BzATP, 3′-O-(4-benzoyl)benzoyl ATP] was tested, and the “uptake of YO-PRO-1 induced by BzATP” value [1] was “no uptake of YO-PRO-1 was induced” and the “current measured at 30 s, of peak” value [2] was 31±3.
